# Measured values reported in US20090170867A1, “TRPV1 ANTAGONISTS INCLUDING SULFONAMIDE SUBSTITUENT AND USES THEREOF” (Shionogi & Co., Ltd., priority 2007, published 2009).
# Where two headings read alike, the source gives them in different places.
# Tests used:
# [1] = target: T1, human TRPV1 (Homo sapiens, UniProt Q8NER1); assay: Capsaicin-based assay, Protocol 2 (TRPV1/CHO cells, Fluo-4, FLIPR); type: cell-based; conditions: capsaicin 100 nM final, mean ± SEM, number of trials in parentheses, read-out: TRPV1 IC50 Potency, Human Capsaicin CHO (hCAP-CHO)
# T1 construct: using primers designed surrounding the complete hTRPV1 open reading frame; expressed in transfected cells; host or cells: CHO-K1 cells stably transfected with pcDNA3.1(-)-hVR1 plasmid
# How it was run: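 CHO cells stably transfected with human TRPV1 cDNA, kept under G418 selection, loaded with 3 μM Fluo-4 for 1 h. Calcium fluorescence followed on FLIPR after a 15 s baseline against capsaicin challenge; compounds at final 100 μM to 1.5625 μM, curves fitted over the full time course.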
# [2] = target: T1, human TRPV1; assay: pH-based assay, Protocol 2 (TRPV1/CHO cells, Fura-2 AM, FDSS-3000, pH 5.0-5.1); type: cell-based; conditions: H2SO4 agonist, mean ± SEM, number of trials in parentheses, read-out: TRPV1 IC50 Potency, Human pH CHO (hpH-CHO)
# [3] = Aqueous solubility; type: physicochemical; conditions: aqueous solution
# [4] = pH 1.2, simulated gastric fluid, read-out: aqueous solubility at pH 1.2
# [5] = pH 6.8, aqueous buffer, read-out: aqueous solubility at pH 6.8
# T1 sequence (Q8NER1 whole entry): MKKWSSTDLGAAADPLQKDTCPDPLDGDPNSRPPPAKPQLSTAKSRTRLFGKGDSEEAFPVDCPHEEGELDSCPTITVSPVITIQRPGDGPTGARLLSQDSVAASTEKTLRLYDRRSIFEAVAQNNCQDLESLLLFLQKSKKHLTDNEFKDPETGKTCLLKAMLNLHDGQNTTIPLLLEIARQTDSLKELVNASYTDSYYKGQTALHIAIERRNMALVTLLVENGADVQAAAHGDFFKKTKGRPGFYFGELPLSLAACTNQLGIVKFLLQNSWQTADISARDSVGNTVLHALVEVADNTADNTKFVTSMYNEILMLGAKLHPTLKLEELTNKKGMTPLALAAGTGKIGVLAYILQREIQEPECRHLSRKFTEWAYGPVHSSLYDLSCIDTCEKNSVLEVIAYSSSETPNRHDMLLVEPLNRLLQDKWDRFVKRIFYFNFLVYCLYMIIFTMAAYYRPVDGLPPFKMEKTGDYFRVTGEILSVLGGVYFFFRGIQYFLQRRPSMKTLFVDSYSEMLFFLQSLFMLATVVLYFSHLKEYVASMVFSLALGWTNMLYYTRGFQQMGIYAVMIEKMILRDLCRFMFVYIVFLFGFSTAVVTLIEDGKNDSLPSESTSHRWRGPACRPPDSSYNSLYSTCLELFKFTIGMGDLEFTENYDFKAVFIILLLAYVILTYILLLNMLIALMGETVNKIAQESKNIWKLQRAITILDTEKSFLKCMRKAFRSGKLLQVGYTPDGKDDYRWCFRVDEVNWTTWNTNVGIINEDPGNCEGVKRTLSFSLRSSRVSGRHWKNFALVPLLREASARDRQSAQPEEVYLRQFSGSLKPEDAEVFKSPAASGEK
IC50 [1] [nM],IC50 [2] [nM],"solubility [3, 4] [µM]","solubility [3, 5] [µM]",SMILES
61.3 ± 22.5,14.7 ± 3.3,> 50,> 50,O=C(Nc1ccc(C(F)(F)F)cc1)N1CC=C(c2ncc([C@H](O)CO)cc2F)CC1 [Compound U1]
27.9 ± 9.9,13.5,> 50,26.4,O=C(Nc1ccc(C(F)(F)F)c(Cl)c1)N1CC=C(c2ncc([C@H](O)CO)cc2F)CC1 [Compound U3]

SMILES,IC50 [1] [nM],IC50 [2] [nM],"solubility [3, 4] [µM]","solubility [3, 5] [µM]"
"O=C(Nc1ccc(C(F)(F)F)cc1)N1CC=C(c2ncc([C@H](O)CO)cc2Cl)CC1 [Compound Z1, (S)-3-Chloro-5-(1,2-dihydroxy-ethyl)-3′,6′-dihydro-2′H-[2,4′]bipyridinyl-1′-carboxylic acid (4-trifluoromethyl-phenyl)amide]",75.8 ± 12.4,11.6 ± 0.7,> 50,> 50
